In publication PMC6742641, “Design, synthesis and biological evaluation of a series of CNS penetrant HDAC inhibitors structurally derived from amyloid-β probes” (Scientific Reports, 2019):
“Also recorded” adds a separate entry of the source. Like-named read-outs stand apart in the source and are kept apart here.

Legend:
[1] = target: T1, HDAC1 (Homo sapiens, UniProt Q13547); assay: HDAC activity assay (fluorimetric, BPS Biosciences); type: biochemical; conditions: class I; mean ± SD (n = 2)
T1 construct: purchased BPS Biosciences
Description: HDAC1, 3, 6 and 7 activity assays were performed according to the manufacturer’s protocol (BPS Biosciences). […] The HDAC assay developer was added to the mixture and incubated the plate at rt for 15 min. The fluorescence intensity was measured using a Tecan Infinite F200 Pro plate reader.

[2] = tested on: SH-SY5Y cells; assay: Cell proliferation (anti-proliferation) assay, MTS; type: cell-based, human
Description: SH-SY5Y cells were grown in DMEM with L-glutamin supplemented with streptomycin ([…]), penicillin (100 units/mL), and 10% fetal bovine serum (FBS). Cells were grown to confluence in a humidified atmosphere (37 °C, 5% CO2).
SH-SY5Y cells (1.5 × 10^3 cells/well) were seeded in a clear 96-well plate, the medium volume was brought to 100 µL, and the cells were allowed to attach overnight. The next day, various concentrations of compounds or DMSO were added to the wells. Cells were then incubated at 37 °C for 24, 48 and 72 h. Cell viability was determined using the Promega Cell Titer 96 Aqueous One Solution cell proliferation assay. Absorbance at 490 nm was read on Tecan Infinite F200 Pro plate reader, and values were expressed as percent of absorbance from cells incubated in DMSO alone.

[3] = PAMPA-BBB assay; type: in vitro ADME
Description: BBB-PAMPA was conducted by manufacturer’s instruction (pION Inc, MA, USA). […] Transmembrane side to donor part was coated with BBB lipid solution and add 200 μL acceptor buffer in upper part of PAMPA sandwich plate.

[4] = tested on: Ac-Histone H3; assay: Western blot of acetylation status in SH-SY5Y cells; type: cell-based, human; conditions: 24 h, 0.5 to 5 μM
Description: (§1) Cells were seeded in 100 mm culture dishes (1 × 10^6 cells/dish), and allowed to attach overnight. Inhibitors were added at the concentrations as indicated and the cells were incubated for an additional 24 hours. For comparison, cells were also incubated with DMSO (0.5%) for 24 hours. Cells were harvested in ice-cold lysis buffer (23 mM Tris-HCl pH 7.6, 130 mM NaCl, 1% NP-40, 1% sodium deoxycholate, 0.1% SDS), and 30 µg of lysate per lane was separated by SDS-PAGE and followed by transferring to a PVDF membrane (Bio-Rad). The membrane was blocked with 5% skim milk in TBST, and then incubated with the corresponding antibody (Ac-α-tubulin, α-tubulin, Ac-Histone H3, Histone H3 or β-actin). After binding of an appropriate secondary antibody coupled to horseradish peroxidase, proteins were visualized by ECL chemiluminescence according to the instructions of the manufacturer (GE healthcare, USA).

[5] = tested on: Ac-α-tubulin; assay: as above; type: cell-based, human; conditions: 24 h, 0.5 to 5 μM
Description: as §1

[6] = tested on: SH-SY5Y cells; assay: Soft agar colony formation assay; type: cell-based, human; conditions: 3 weeks, 3 μM
Description: Cells (10^4 cells/well) were seeded in 6 well plate with 1.2% agar. After 12 h incubation, cells were treated with the indicated concentrations of compound 9b or DMSO at 37 °C in 5% humidified CO2 for 3 weeks with continuously changing medium every week. After medium was thrown away, colonies were stained with 0.05% crystal violet for 10 min.

[7] = In vivo brain pharmacokinetic study; conditions: ICR male mice, IV, 2 mg/kg
Description: The study was approved by the Institutional Animal Care and Use of Committee of Daegu-Gyeongbuk Medical Innovation Foundation (DGMIF) and performed in accordance with protocols approved by the Institutional Animal Care and Use of Committee. […] Brain and plasma samples were collected at 0.5 and 1 h time points. Brain samples were homogenized at a 1:4 ratio of sample weight (g) to PBS volume (mL). Aliquots (20 μL) of brain homogenate were mixed with 180 μL of acetonitrile, vortexed and centrifuged at 15,000 rpm for 5 minutes at 4 °C. The resulting supernatants were used for LC-MS/MS analysis. Mice plasma samples were collected at 0.5 and 1 h time points. 180 μL of acetonitrile was added to 20 μL of plasma samples, vortexed and centrifuged at 15,000 rpm for 5 minutes at 4 °C.

T1 sequence (Q13547 whole entry): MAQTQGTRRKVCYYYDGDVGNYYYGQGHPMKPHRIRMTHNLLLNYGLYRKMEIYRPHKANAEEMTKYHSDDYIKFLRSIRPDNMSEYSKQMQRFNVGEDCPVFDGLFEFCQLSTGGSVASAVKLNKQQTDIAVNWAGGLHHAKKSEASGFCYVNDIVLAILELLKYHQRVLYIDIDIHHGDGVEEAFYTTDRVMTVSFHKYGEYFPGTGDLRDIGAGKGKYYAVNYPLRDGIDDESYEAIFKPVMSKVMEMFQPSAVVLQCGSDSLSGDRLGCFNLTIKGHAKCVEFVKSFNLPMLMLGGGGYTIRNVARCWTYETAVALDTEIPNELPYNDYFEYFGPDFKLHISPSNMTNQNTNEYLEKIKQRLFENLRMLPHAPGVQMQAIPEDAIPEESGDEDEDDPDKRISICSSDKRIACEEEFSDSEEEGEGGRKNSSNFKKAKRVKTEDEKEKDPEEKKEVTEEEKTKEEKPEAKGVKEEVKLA

O=C(NO)c1ccc(-c2nc3ccccc3s2)cc1 [Compound 9b]
IC50 [1]: 84.9 ± 25.1 nM
SH-SY5Y cell growth impaired ([2]; 5 μM, 72 hours): ~73%
GI50 ([2]; Homo sapiens, SH-SY5Y neuroblastoma cell line, 72 h, mean ± SD (n = 4)): 2.01 ± 0.33 µM
IC50 ([2]; Homo sapiens, SH-SY5Y, Table 1 values IC50, read-out: anti-proliferative activity IC50 against SH-SY5Y cell line): 2010 nM
Pe (10^−6 cm/s) ([3]; 25 μM, pH 7.4, 4 h, 25 °C, mean ± SD, three independent experiments): 27.15 10^−6 cm/s
CNS +/− classification ([3]; PAMPA-BBB): CNS + (CNS + indicates (Pe > 10))
Papp at 4 h, 25 μM ([3]; PAMPA, 25 μM, pH 7.4, 4 h, 25 °C, mean ± SD, three independent experiments, read-out: Pe): 27.1 ± 1.59 ×10⁻⁶ cm/s
acetylation status of Histone H3 [4]: more efficiently promoted the acetylation of Histone H3 and α-tubulin than compound 9a; also recorded: significantly induced the accumulation of acetylated Histone H3
acetylation status of α-tubulin [5]: more efficiently promoted the acetylation of Histone H3 and α-tubulin than compound 9a; also recorded: dose-dependently increased
anchorage-independent cell growth (colony formation) [6]: almost completely inhibited
Brain concentration (ng/mL) 0.5 h ([7]; 0.5 h, n = 4): 414.6 ± 88.7 ng/mL
Brain concentration (ng/mL) 1 h ([7]; 1 h, n = 4): 52.9 ± 1.6 ng/mL
Kp at 0.5 h ([7]; mouse, brain/plasma, 0.5 h, read-out: Brain/plasma ratio 0.5 h): 9
Kp at 1 h ([7]; mouse, brain/plasma, 1 h, read-out: Brain/plasma ratio 1 h): 7.2
concentration at 0.5 h ([7]; mouse, brain, 0.5 h, n = 4, read-out: Brain concentration (ng/mL) 0.5 h): 415 ng/mL
concentration at 1 h ([7]; mouse, brain, 1 h, n = 4, read-out: Brain concentration (ng/mL) 1 h): 52.9 ng/mL
concentration at 0.5 h ([7]; mouse, plasma, 0.5 h, n = 4, read-out: Plasma concentration (ng/mL) 0.5 h): 46 ± 13.9 ng/mL
concentration at 1 h ([7]; mouse, plasma, 1 h, n = 4, read-out: Plasma concentration (ng/mL) 1 h): 7.3 ± 1 ng/mL
